Test results reported in patent publication US20260199294A1, “PEPTIDE DRUG CONJUGATES” (Oncopeptides Innovation AB, priority 2022, published 2026).

What was measured:
[1] = test system: hPBMC (Human Peripheral blood mononuclear cells); assay: In vitro cytotoxicity (CellTiter-Glo, 72 h) in hPBMC; assay type: cell-based; details: stimulated with PHA-M and IL-2
Procedure: (§1) All cells were cultivated in RPMI medium 1640 (IX). All media was supplemented with […] penicillin/streptomycin, 10% heat inactivated FBS, 0.1 mM Sodium Pyruvate, 1×MEM NEAA (ThermoFisher) and 1 mM HEPES. The DERL-2 cells had higher FBS (20%) and 40 ng/mL IL-2 was added. hPBMCs were thawed and allowed to acclimatise overnight and then stimulated with 10 µg/mL PHA-M and 40 ng/mL IL-2 for 4 hours before being exposed to test compounds. All cells, except for hPBMCs, were grown to reach log phase before being exposed to the test compounds.
(§2) Test compounds were dissolved in 100% DMSO and added to a 384 assay plate. Additional DMSO was added to maintain the same final DMSO concentration (0.2%) in all wells. 25 μL cell suspension with a concentration of 100000 cells/mL was added to each well. The cells were cultured in a CO2 incubator at 37° C. for 72 h. Plates were equilibrated to room temperature for 30 minutes before adding 20 μL CellTiter-Glo® 2.0 (Promega) reagent to all wells. The plate was then allowed to stabilize for 20 minutes before recording the luminescence (Em filter 700 nm) in an Envision plate reader.

[2] = test system: BJ Fibroblasts (normal cells); assay: In vitro cytotoxicity (CellTiter-Glo, 72 h) in BJ fibroblasts; assay type: cell-based, human
Procedure: as §1, §2

[3] = test system: mitochondrial DNA (mtDNA) prepared from MM.1S cells; assay: Direct DNA damage, PCR amplification with mtDNA primers; assay type: biochemical, human; details: 0.25 μM compound, 30 minutes at 37° C.
Procedure: (§3) Method: DNA was prepared from MM.1S cells by QIAGEN genomic tip 20/G according to protocol described in Furda et al., Methods Mol Biol, 2012. 1 μg of DNA was treated with 0.25 μM compound for 30 minutes at 37° C. DMSO was used as control treatment. 20 ng of the treated DNA was PCR amplified using Phusion Hot Start II High Fidelity PCR Master Mix (Thermo Scientific) and primers directed to either HPRT or primers directed to mitochondrial DNA (mtDNA) was used, generating 10.4 or 8.9 kb fragments, respectively. The PCR reactions were separated on a 1% agarose gel and visualized by ChemiDoc™ MP Imaging System (BioRad). Example compounds 1, 2 and 38 were investigated, as were compounds 18 and 20, which are metabolites of compound 1. They were compared with bendamustine, melphalan and DMSO control. The results for compounds 1, 2, 18 and 20 with the HPRT primers are shown in FIG. 4(A); the results with the mtDNA primers are shown in FIG. 4(B).

[4] = test system: MM.1S cells; assay: Cellular retention/efflux: intracellular and extracellular concentrations by LC-MS/MS; assay type: in vitro ADME, human; details: MM.1S cells, 5, 15 and 60 min; metabolites measured after treatment with the parent Example compound
Procedure: Methods: MM.1S cells at 2×10^6 cells/mL were seeded at 250 μL per well in a 96-well plate. Cells were incubated in the presence of a test compound for 5, 15, and 60 min before pelleting cells by centrifugation at +4° C. for 5 min. Cell media was immediately harvested to a second plate and stored at −80° C. until further analysis. Pelleted cells were washed once with ice cold PBS before storage at −80° C. until further analysis.
Cells were lysed and protein in the media were precipitated using acetonitrile dimethylformamide, 9:1 containing internal standard. Samples were centrifuged and the supernatant was analyzed with LC-MS/MS (ACQUITY UPLC-Xevo TQ-S micro) to determine compound concentration.
Example compound 1, bendamustine and melphalan were used as test compounds.
Method: Method described in Biological example 3.
Example compounds 1, 2, 3, 4, 6, 7 and 10 were investigated. Intracellular metabolites are formed from all compounds tested. The compound used for cell treatment was metabolised to the ester-hydrolysed compound (here called Metabolite A) and to the amide-hydrolysed compound (called Metabolite B). The example compound structures and the structures of the two metabolites for the respective compounds were as shown in Table 4. The Metabolites B formed under the conditions tested were compounds with structure as Examples 17 and 18: […]

[5] = test system: nuclear DNA (HPRT) prepared from MM.1S cells; assay: Direct DNA damage, PCR amplification with HPRT primers; assay type: biochemical, human; details: 0.25 μM compound, 30 minutes at 37° C.
Procedure: as §3

[6] = test system: MM.1S cells; assay: DNA fragmentation, APO-BrdU TUNEL assay by FACS; assay type: cell-based, human
Procedure: Method: 1×10^6 MM.1S cells (CRL-2974, ATCC) were treated with Example compound 1 or Bendamustine at 0.006, 0.06, 0.6 or 6 μM for 24 h. After incubation, the cells were washed with PBS (10010-015, Gibco), fixed in Flow Cytometry Fixation Buffer (FC004, R&D Systems) for 10 min and stored in 70% ethanol at −20° C. overnight. The deoxythymidine analog (BrdUTP) was present in the experiment and served to label the DNA break sites. Next day, the cells were washed and stained using an APO-BrdU™ TUNEL Assay Kit, according to the manufacturer's protocol (A23210, Invitrogen), followed by the analysis using BD FACSCanto™ II. The percentage ofTUNEL positive cells indicates the percentage of cells with fragmented DNA.

SMILES: CCOC(=O)[C@H](Cc1nc2cc(N(CCCl)CCCl)ccc2n1C)NC(=O)[C@@H](N)CC(C)C [Example compound 10, Ethyl (2S)-2-[[(2S)-2-amino-4-methyl-pentanoyl]amino]-3-[5-[bis(2-chloroethyl)amino]-1-methyl-benzimidazol-2-yl]propanoate]
- IC50 [1]: 0.0264 µM

SMILES: CCOC(=O)[C@H](Cc1ccc(F)cc1)NC(=O)[C@H](CCc1nc2cc(N(CCCl)CCCl)ccc2n1C)NC(C)=O [Example compound 34, Ethyl (2S)-2-[[(2S)-2-acetamido-4-[5-[bis(2-chloroethyl)amino]-1-methyl-benzimidazol-2-yl]butanoyl]amino]-3-(4-fluorophenyl)propanoate]
- IC50 [2]: > 2 µM

SMILES: CCOC(=O)[C@H](CC(C)C)NC(=O)[C@@H](N)CCc1nc2cc(N(CCCl)CCCl)ccc2n1-c1ccccc1 [Example compound 13, Ethyl (2S)-2-[[(2S)-2-amino-4-[5-[bis(2-chloroethyl)amino]-1-phenyl-benzimidazol-2-yl]butanoyl]amino]-4-methyl-pentanoate]
- IC50 [2]: > 2 µM

SMILES: CC(C)C[C@H](NC(=O)[C@@H](N)CCc1nc2cc(N(CCCl)CCCl)ccc2n1C)C(=O)N(C)C [Example compound 30, (2S)-2-[[(2S)-2-Amino-4-[5-[bis(2-chloroethyl)amino]-1-methyl-benzimidazol-2-yl]butanoyl]amino]-N,N,4-trimethyl-pentanamide]
- IC50 [2]: > 2 µM

SMILES: Cn1c(CCCC(=O)O)nc2cc(N(CCCl)CCCl)ccc21 [Bendamustine, reference compound]
- DNA damage on mitochondrial DNA (8.9 kb PCR band) [3]: no or very minor effect on DNA damage
- extracellular concentration (media) [4]: quite high and decreased over time
- intracellular concentration [4]: Low intracellular concentrations could be detected of bendamustine and the level decreases over time
- DNA damage on nuclear DNA (HPRT 10.4 kb PCR band) [5]: no or very minor effect on DNA damage
- cells with DNA breaks ([6]; 0.6 μM for 24 h): not the case
- dose response effect on DNA damage (TUNEL positive cells) ([6]; 0.006, 0.06, 0.6 or 6 μM for 24 h): no obvious effect

SMILES: Cl.Cl.Cn1c(CC[C@H](N)C(=O)O)nc2cc(N(CCCl)CCCl)ccc21 [Example compound 18, (S)-2-amino-4-(5-(bis(2-chloroethyl)amino)-1-methyl-1H-benzo[d]imidazol-2-yl)butanoic acid]
- DNA damage on mitochondrial DNA (8.9 kb PCR band) [3]: effectively damaged
- extracellular concentration (media) [4]: low levels of it are found in the media outside the cells
- intracellular concentration [4]: rapidly formed inside the cells
- DNA damage on nuclear DNA (HPRT 10.4 kb PCR band) [5]: effectively damaged

SMILES: CCOC(=O)[C@@H](N)CCc1nc2cc(N(CCCl)CCCl)ccc2n1C.Cl.Cl [Example compound 38, Ethyl (2S)-2-amino-4-[5-[bis(2-chloroethyl)amino]-1-methyl-benzimidazol-2-yl]butanoate]
- DNA damage on mitochondrial DNA (8.9 kb PCR band) [3]: effectively damaged
- DNA damage on nuclear DNA (HPRT 10.4 kb PCR band) [5]: effectively damaged

SMILES: N[C@@H](Cc1ccc(N(CCCl)CCCl)cc1)C(=O)O [Melphalan, reference compound]
- DNA damage on mitochondrial DNA (8.9 kb PCR band) [3]: no or very minor effect on DNA damage
- extracellular concentration (media) [4]: high and constant throughout the experiment
- intracellular concentration [4]: low intracellular concentration
- DNA damage on nuclear DNA (HPRT 10.4 kb PCR band) [5]: no or very minor effect on DNA damage

SMILES: CCOC(=O)[C@H](Cc1ccc(F)cc1)NC(=O)[C@@H](N)CCc1nc2cc(N(CCCl)CCCl)ccc2n1C [Example compound 2, Ethyl (2S)-2-[[(2S)-2-amino-4-[5-[bis(2-chloroethyl)amino]-1-methyl-benzimidazol-2-yl]butanoyl]amino]-3-(4-fluorophenyl)propanoate]
- IC50 [1]: 0.0075 µM
- DNA damage on mitochondrial DNA (8.9 kb PCR band) [3]: strong DNA damaging effect
- DNA damage on nuclear DNA (HPRT 10.4 kb PCR band) [5]: strong DNA damaging effect

SMILES: CC(C)C[C@H](NC(=O)[C@@H](N)CCc1nc2cc(N(CCCl)CCCl)ccc2n1C)C(=O)O [Example compound 20, (2S)-2-[[(2S)-2-amino-4-[5-[bis(2-chloroethyl)amino]-1-methyl-benzimidazol-2-yl]butanoyl]amino]-4-methyl-pentanoic acid]
- DNA damage on mitochondrial DNA (8.9 kb PCR band) [3]: DNA damaging effect but to a lesser degree compared to Example compounds 1, 2 and 18, but greater than Bendamustine or Melphalan
- DNA damage on nuclear DNA (HPRT 10.4 kb PCR band) [5]: DNA damaging effect but to a lesser degree compared to Example compounds 1, 2 and 18, but greater than Bendamustine or Melphalan
